Measurements reported in PubChem BioAssay AID2060623 (Molecular Pharmacology Branch, DTP, NCI, 2025).
Several values for one entry are separate records, joined by “and”; a condition that tells them apart may be missing. Identical values can stand only once.

System: 227483-062-R1-J1-PDC complex spheroids with HUVEC/MSC, viability
Experiment: Anticancer human tumor 227483-062-R1-J1-PDC patient-derived pancreatic carcinoma cell line growth inhibition [CLK]
Details: for viability, T/C: stronger effect = lower value
Procedure, shortened: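 Multi-cell-type spheroids combined patient-derived tumor cells with HUVEC endothelial cells and human mesenchymal stem cells. Paired agents were dosed in half-log steps down from about clinical Cmax, or from 10 microM where Cmax was unknown.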

[1] = curve of first compound, second compound 0.0316 µM
[2] = curve of first compound, second compound 0.1 µM
[3] = curve of first compound, second compound 0.316 µM
[4] = curve of first compound, second compound 1 µM
[5] = curve of first compound, second compound 3.16 µM
[6] = curve of first compound, second compound 10 µM
[7] = second compound 0.0316 µM, first compound 0.0316 µM
[8] = second compound 0.0316 µM, first compound 0.1 µM
[9] = second compound 0.0316 µM, first compound 0.316 µM
[10] = second compound 0.0316 µM, first compound 1 µM
[11] = second compound 0.0316 µM, first compound 3.16 µM
[12] = second compound 0.0316 µM, first compound 10 µM
[13] = second compound 0.1 µM, first compound 0.0316 µM
[14] = second compound 0.1 µM, first compound 0.1 µM
[15] = second compound 0.1 µM, first compound 0.316 µM
[16] = second compound 0.1 µM, first compound 1 µM
[17] = second compound 0.1 µM, first compound 3.16 µM
[18] = second compound 0.1 µM, first compound 10 µM
[19] = second compound 0.316 µM, first compound 0.0316 µM
[20] = second compound 0.316 µM, first compound 0.1 µM
[21] = second compound 0.316 µM, first compound 0.316 µM
[22] = second compound 0.316 µM, first compound 1 µM
[23] = second compound 0.316 µM, first compound 3.16 µM
[24] = second compound 0.316 µM, first compound 10 µM
[25] = second compound 1 µM, first compound 0.0316 µM
[26] = second compound 1 µM, first compound 0.1 µM
[27] = second compound 1 µM, first compound 0.316 µM
[28] = second compound 1 µM, first compound 1 µM
[29] = second compound 1 µM, first compound 3.16 µM
[30] = second compound 1 µM, first compound 10 µM
[31] = second compound 3.16 µM, first compound 0.0316 µM
[32] = second compound 3.16 µM, first compound 0.1 µM
[33] = second compound 3.16 µM, first compound 0.316 µM
[34] = second compound 3.16 µM, first compound 1 µM
[35] = second compound 3.16 µM, first compound 3.16 µM
[36] = second compound 3.16 µM, first compound 10 µM
[37] = second compound 10 µM, first compound 0.0316 µM
[38] = second compound 10 µM, first compound 0.1 µM
[39] = second compound 10 µM, first compound 0.316 µM
[40] = second compound 10 µM, first compound 1 µM
[41] = second compound 10 µM, first compound 3.16 µM
[42] = second compound 10 µM, first compound 10 µM
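Note: spheroids exposed to compounds for seven days before readout.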
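Throughout, for viability, T/C: percent of DMSO vehicle control luminescence as 100% viability.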

**Q.** Which results are given for `COc1ccc([C@@H](O)c2cc(-c3ncnc4cc(N5CCOCC5)ccc34)c(F)cc2Cl)nn1` + CNC(=O)c1ccc(Nc2nc(OC3CCCC3)c3c(-c4ccc5nc(C)oc5c4)c[nH]c3n2)c(OC)c1?
**A.** IC50 [1]: > 10000 nM; IC50 [2]: > 10000 nM; IC50 [3]: > 10000 nM; IC50 [4]: 750 nM; IC50 [5]: < 31.6 nM; IC50 [6]: < 31.6 nM; viability, T/C [7]: 94.6%; viability, T/C [8]: 85.9%; viability, T/C [9]: 108%; viability, T/C [10]: 94.5%; viability, T/C [11]: 73.1%; viability, T/C [12]: 59.8%; viability, T/C [13]: 98.6%; viability, T/C [14]: 86.8%; viability, T/C [15]: 76.7%; viability, T/C [16]: 75.5%; viability, T/C [17]: 58.5%; viability, T/C [18]: 53.5%; viability, T/C [19]: 86.2%; viability, T/C [20]: 83.1%; viability, T/C [21]: 72.1%; viability, T/C [22]: 56.5%; viability, T/C [23]: 63.5%; viability, T/C [24]: 53.7%; viability, T/C [25]: 68.1%; viability, T/C [26]: 64.3%; viability, T/C [27]: 62.8%; viability, T/C [28]: 42.5%; viability, T/C [29]: 48%; viability, T/C [30]: 46.7%; viability, T/C [31]: 42%; viability, T/C [32]: 41.5%; viability, T/C [33]: 42.1%; viability, T/C [34]: 45.7%; viability, T/C [35]: 48.3%; viability, T/C [36]: 26.2%; viability, T/C [37]: 36.1%; viability, T/C [38]: 38.2%; viability, T/C [39]: 31.9%; viability, T/C [40]: 39%; viability, T/C [41]: 38.6%; viability, T/C [42]: 27.9%

**Q.** Which viability, T/C (compound 0.0316 µM) does the source give for `Nc1ccn(C2OC(CO)C(O)C2(F)F)c(=O)n1` (stereo not drawn) here?
**A.** The viability, T/C was 83.5% and 62.6%.

**Q.** What about the viability, T/C (compound 0.1 µM) of the same compound?
**A.** The viability, T/C was 43.6% and 29.8%.

**Q.** What about the viability, T/C (compound 0.316 µM) of the same compound?
**A.** The viability, T/C was 33.7% and 28.5%.

**Q.** What about the viability, T/C (compound 1 µM) of the same compound?
**A.** Its viability, T/C is 37.7% and 30.3%.

**Q.** What about the viability, T/C (compound 3.16 µM) of the same compound?
**A.** The viability, T/C was 35.4% and 25.7%.

**Q.** And the viability, T/C (compound 10 µM)?
**A.** Its viability, T/C is 23.9% and 20.4%.

**Q.** And the IC50 (curve of compound)?
**A.** Its IC50 is 83.9 nM and 49.5 nM.

**Q.** What does the source list for `C=C(F)C(=O)N1CCN(c2nc(OCC3CCCN3C)nc3c2CCN(c2cccc4cccc(Cl)c24)C3)CC1CC#N` (stereo not drawn) + CNC(=O)c1ccc(Nc2nc(OC3CCCC3)c3c(-c4ccc5nc(C)oc5c4)c[nH]c3n2)c(OC)c1?
**A.** IC50 [1]: 5410 nM; IC50 [2]: 5790 nM; IC50 [3]: 5820 nM; IC50 [4]: 3780 nM; IC50 [5]: 169 nM; IC50 [6]: < 31.6 nM; viability, T/C [7]: 116%; viability, T/C [8]: 98%; viability, T/C [9]: 117%; viability, T/C [10]: 121%; viability, T/C [11]: 83.9%; viability, T/C [12]: 11.4%; viability, T/C [13]: 113%; viability, T/C [14]: 118%; viability, T/C [15]: 93.7%; viability, T/C [16]: 103%; viability, T/C [17]: 96.5%; viability, T/C [18]: 8.35%; viability, T/C [19]: 95.9%; viability, T/C [20]: 84.2%; viability, T/C [21]: 101%; viability, T/C [22]: 102%; viability, T/C [23]: 130%; viability, T/C [24]: 3.32%; viability, T/C [25]: 79.6%; viability, T/C [26]: 57.4%; viability, T/C [27]: 67.7%; viability, T/C [28]: 69%; viability, T/C [29]: 58.8%; viability, T/C [30]: 0.65%; viability, T/C [31]: 52.3%; viability, T/C [32]: 47.2%; viability, T/C [33]: 51.9%; viability, T/C [34]: 41.6%; viability, T/C [35]: 22%; viability, T/C [36]: 0.26%; viability, T/C [37]: 42.4%; viability, T/C [38]: 43.3%; viability, T/C [39]: 40.3%; viability, T/C [40]: 29%; viability, T/C [41]: 16.1%; viability, T/C [42]: 0.39%

**Q.** What does the source list for `O=c1[nH]cc(F)c(=O)[nH]1` + CN1CCN(c2cc(C(=O)Nc3cc4cc(-c5cnn(C)c5)ccc4cn3)ccn2)CC1?
**A.** IC50 [1]: 2920 nM; IC50 [2]: 362 nM; IC50 [3]: < 31.6 nM; IC50 [4]: < 31.6 nM; IC50 [5]: < 31.6 nM; IC50 [6]: < 31.6 nM; viability, T/C [7]: 113%; viability, T/C [8]: 117%; viability, T/C [9]: 109%; viability, T/C [10]: 76.9%; viability, T/C [11]: 50.8%; viability, T/C [12]: 31.9%; viability, T/C [13]: 69.3%; viability, T/C [14]: 57.1%; viability, T/C [15]: 58.1%; viability, T/C [16]: 38.1%; viability, T/C [17]: 27.5%; viability, T/C [18]: 20.5%; viability, T/C [19]: 6.26%; viability, T/C [20]: 5.02%; viability, T/C [21]: 5.2%; viability, T/C [22]: 4.61%; viability, T/C [23]: 4.43%; viability, T/C [24]: 3.27%; viability, T/C [25]: 1.65%; viability, T/C [26]: 2.05%; viability, T/C [27]: 5.56%; viability, T/C [28]: 1.25%; viability, T/C [29]: 1.55%; viability, T/C [30]: 1.14%; viability, T/C [31]: 4.69%; viability, T/C [32]: 2.74%; viability, T/C [33]: 3.16%; viability, T/C [34]: 2.23%; viability, T/C [35]: 2.22%; viability, T/C [36]: 2.26%; viability, T/C [37]: 1.91%; viability, T/C [38]: 1.38%; viability, T/C [39]: 1.3%; viability, T/C [40]: 3.91%; viability, T/C [41]: 1.9%; viability, T/C [42]: 2.3%
